Source: patent US12377106B2, “Piperidinylpyrazine-carboxamide compounds for treating and preventing cancer and for degrading BTK” (NURIX THERAPEUTICS, INC., priority 2021, dated 2025)

Biological target: T1, Aiolos (Homo sapiens, UniProt Q96SW2+Q9UKT9)
T1 construct: Compound 149 also degraded Ikaros and Aiolos; endogenous in cells
Assay: Aiolos degradation in the patient
Format: in vivo
Settings: DLBCL patient, 300 mg
Protocol: The patient's response was checked at 8 weeks and 16 weeks. […] Gradual BTK degradation was observed until day 8 day of receiving the 300 mg dose of Compound 149, wherein the maximum BTK degradation was achieved on the 8th day. Consistent with its design, Compound 149 also degraded Ikaros and Aiolos which is responsible for the compound's immunomodulatory activity. […] In the 16-week assessment image, maximum standard uptake value (Max SUV) reduced from 17.6 at screening to 2.5 at the 16-week assessment time with the Deauville five-point scale (5PS; Barrington et al., 2010, Eur J Nucl Med Mol Imaging 37 (10): 1824-33) reducing from 5 to 2.

T1 sequence (Q9UKT9 whole entry): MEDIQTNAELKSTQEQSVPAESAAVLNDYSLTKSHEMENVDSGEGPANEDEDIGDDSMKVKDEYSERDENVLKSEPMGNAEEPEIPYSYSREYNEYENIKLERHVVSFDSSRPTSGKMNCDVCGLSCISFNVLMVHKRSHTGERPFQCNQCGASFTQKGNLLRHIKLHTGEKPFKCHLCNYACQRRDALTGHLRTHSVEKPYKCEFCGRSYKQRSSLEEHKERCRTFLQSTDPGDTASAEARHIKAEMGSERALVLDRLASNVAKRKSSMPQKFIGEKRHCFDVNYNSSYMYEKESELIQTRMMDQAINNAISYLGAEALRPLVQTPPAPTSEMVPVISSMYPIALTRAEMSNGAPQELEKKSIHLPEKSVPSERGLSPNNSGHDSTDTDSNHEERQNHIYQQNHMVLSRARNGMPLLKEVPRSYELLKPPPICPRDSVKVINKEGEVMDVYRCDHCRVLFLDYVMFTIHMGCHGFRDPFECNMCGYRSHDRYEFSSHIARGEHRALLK
T1 sequence (Q96SW2 whole entry): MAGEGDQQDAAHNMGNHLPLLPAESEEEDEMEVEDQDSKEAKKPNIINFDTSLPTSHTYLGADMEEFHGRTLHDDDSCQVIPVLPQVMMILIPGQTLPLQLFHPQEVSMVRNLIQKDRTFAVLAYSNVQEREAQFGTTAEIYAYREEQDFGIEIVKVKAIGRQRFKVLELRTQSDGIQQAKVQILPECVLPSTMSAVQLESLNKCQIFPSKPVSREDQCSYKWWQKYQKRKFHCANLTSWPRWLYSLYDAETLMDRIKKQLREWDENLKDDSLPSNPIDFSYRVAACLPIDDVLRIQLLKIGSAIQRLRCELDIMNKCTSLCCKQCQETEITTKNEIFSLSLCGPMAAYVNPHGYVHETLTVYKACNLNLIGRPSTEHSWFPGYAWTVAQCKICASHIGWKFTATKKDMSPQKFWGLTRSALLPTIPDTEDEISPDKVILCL
T1 sequence (Q16531 whole entry partner): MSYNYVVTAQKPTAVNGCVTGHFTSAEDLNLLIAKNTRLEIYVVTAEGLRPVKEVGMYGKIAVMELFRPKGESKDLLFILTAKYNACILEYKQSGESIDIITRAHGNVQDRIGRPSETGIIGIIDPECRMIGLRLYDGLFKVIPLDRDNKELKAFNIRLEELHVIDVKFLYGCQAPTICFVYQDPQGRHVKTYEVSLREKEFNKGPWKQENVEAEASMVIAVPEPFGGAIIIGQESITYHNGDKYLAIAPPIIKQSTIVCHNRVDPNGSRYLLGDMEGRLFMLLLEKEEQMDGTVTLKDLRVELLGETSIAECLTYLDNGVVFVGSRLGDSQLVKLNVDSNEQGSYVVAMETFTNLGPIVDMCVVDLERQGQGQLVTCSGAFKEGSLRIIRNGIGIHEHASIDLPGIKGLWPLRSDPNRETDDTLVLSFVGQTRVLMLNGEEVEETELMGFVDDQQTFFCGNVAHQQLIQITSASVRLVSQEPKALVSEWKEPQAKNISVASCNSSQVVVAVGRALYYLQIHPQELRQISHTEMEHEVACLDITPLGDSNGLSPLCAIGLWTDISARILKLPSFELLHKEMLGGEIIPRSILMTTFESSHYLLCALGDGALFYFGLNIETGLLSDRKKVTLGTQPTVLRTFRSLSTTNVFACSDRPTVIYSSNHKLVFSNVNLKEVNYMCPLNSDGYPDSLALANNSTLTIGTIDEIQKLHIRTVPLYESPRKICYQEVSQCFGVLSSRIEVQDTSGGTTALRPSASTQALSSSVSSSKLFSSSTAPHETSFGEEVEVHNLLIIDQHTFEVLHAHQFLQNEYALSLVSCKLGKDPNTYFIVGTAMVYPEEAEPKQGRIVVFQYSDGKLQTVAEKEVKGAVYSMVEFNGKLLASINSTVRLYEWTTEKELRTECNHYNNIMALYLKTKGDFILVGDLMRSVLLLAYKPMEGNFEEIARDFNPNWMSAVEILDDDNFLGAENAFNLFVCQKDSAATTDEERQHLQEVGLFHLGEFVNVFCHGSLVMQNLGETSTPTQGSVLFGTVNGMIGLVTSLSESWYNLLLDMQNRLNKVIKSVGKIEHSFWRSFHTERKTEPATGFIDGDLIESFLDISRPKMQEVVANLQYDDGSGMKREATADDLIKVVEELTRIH

NC(=O)c1ncc(N2CCCCC2)nc1Nc1ccc(C2CCN(C[C@@H]3CCN(c4ccc5c(c4)C(=O)N(C4CCC(=O)NC4=O)C5=O)C3)CC2)cc1 (stereo partly shown) [Compound 149]
Aiolos degradation: degraded
